Measurements taken from PubChem BioAssay (NCI).
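Cells were grown in 96-well plates and exposed to each compound for 48 hours at five concentrations; endpoints were interpolated linearly between bracketing concentrations, or set to the highest concentration if not reached. At the GI50, growth is halved. TGI is the concentration that stops growth completely.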

Tested on: CAKI-1 renal
Assay: growth of human tumour cells (NCI), 48 h

COc1cc(/C=C2\CCCC3=C2NC(N)=NC3c2cc(OC)c(OC)c(OC)c2)cc(OC)c1OC (configuration not stated)
GI50: 1.44 µM
TGI: 7.69 µM
